Measured values taken from patent US6403816B1 (Dabur Research Foundation, priority 1997, dated 2002).

How the values were obtained:
[1] = tested on: human melanoma cell lines, Mel-1, Mel-2, and Mel-4; conditions: Mel-1, Mel-2, Mel-4; cited from earlier work
MEL-2 cells = conditions: cited from earlier work
[2] = tested on: A431, BC-1, COL-2, HT1080, KB, LNCaP, LU-1, U373, ZR-75-1; conditions: cited from earlier work
ECV304 [3] = assay: ECV304 endothelial cell proliferation, MTT assay; type: cell-based, human; conditions: concentration causing 50% cytotoxicity; MTT after 72 hours
Description: 30 μl of ECV304 cell suspension (50×10^4 cells/ml in RPMI 1640 containing 10% FBS) followed by 150 μl of medium was added to the wells of a 96-well tissue culture plate (Nunc, Denmark) and incubated (37° C., 5% CO2) overnight. […] Each concentration was plated in triplicates. 20μl of medium alone was added to control wells. After 72 hours of incubation an MTT assay (Mosmann, 1983) was performed and percentage inhibition in proliferation of treated cells was calculated with respect to control cells.

DU145 = assay: Tumor cell cytotoxicity assay, prostate; type: cell-based; conditions: for Prostate ECS Ratio: ED50 DU145 / ED50 ECV304; for Prostate DU145 (ED50): concentration causing 50% cytotoxicity
Excerpt: (§1) The cytotoxicity assays for tumor cells have been described in detail in our application Ser. No. 09/040,856 filed in U.S. on Mar. 18, 1998.

L132 = assay: Tumor cell cytotoxicity assay, lung; type: cell-based; conditions: for Lung ECS Ratio: ED50 L132 / ED50 ECV304; for Lung L132 (ED50): concentration causing 50% cytotoxicity
Excerpt: as §1

PA-1 = assay: Tumor cell cytotoxicity assay, ovary; type: cell-based; conditions: for Ovary ECS Ratio: ED50 PA-1 / ED50 ECV304; for Ovary PA-1 (ED50): concentration causing 50% cytotoxicity
Excerpt: as §1

HT-29 = assay: Tumor cell cytotoxicity assay, colon; type: cell-based; conditions: for Colon ECS Ratio: ED50 HT-29 / ED50 ECV304; for Colon HT-29 (ED50): concentration causing 50% cytotoxicity
Excerpt: as §1

ECV304 [4] = assay: Tube-like-structure (TLS) formation of ECV304 cells on Matrigel; type: cell-based, human; conditions: 24-48 hours
Description: Matrigel (70 μl) was placed into each well of a 96-well culture plate at 4° C. and was allowed to polymerize by incubation at 37° C. for 30 min. ECV304 (1×10^4) cells were seeded on the Matrigel in 200 μl DMEM containing 10% FBS. […] Five different phase-contrast microscopic fields (4×) were viewed and total tube area of the tube-like-structures (TLS) measured using Video Pro 32 Image Analysis system. Percent reduction in total tube area was given as the mean of the data from five fields. Percent inhibition of TLS was calculated with reference to Controls(no drug).

| Compound | Growth of melanoma cell lines [1] | In vitro growth of MEL-2 cells (MEL-2 cells) | ED50, other cell lines tested [2] | Endothelial ECV304 (ED50) (ECV304 [3]) | Prostate ECS Ratio (DU145) | Prostate DU145 (ED50) (DU145) | Lung ECS Ratio (L132) | Lung L132 (ED50) (L132) | Ovary ECS Ratio (PA-1) | Ovary PA-1 (ED50) (PA-1) | Colon ECS Ratio (HT-29) | Colon HT-29 (ED50) (HT-29) | % reduction in total tube area (ECV304 [4]; 0.5 μg/ml) | % reduction in total tube area (ECV304 [4]; 2 μg/ml) | % reduction in total tube area (ECV304 [4]; 4 μg/ml) |
| --- | --- | --- | --- | --- | --- | --- | --- | --- | --- | --- | --- | --- | --- | --- | --- |
| C=C(C)[C@@H]1CC[C@]2(C(=O)O)CC[C@]3(C)[C@H](CC[C@@H]4[C@@]5(C)CC[C@H](O)C(C)(C)[C@@H]5CC[C@]43C)[C@@H]12 [Betulinic acid] | inhibited significantly | inhibit in vitro growth | greater than 20 μg/ml | – | – | – | – | – | – | – | – | – | – | – | – |
| C=C(C)C1CCC2(C(=O)O)CCC3(C)C(CCC4C5(C)CCC(=NNc6ccccc6)C(C)(C)C5CCC43C)C12 (stereo not drawn) [MJ353-RS] | – | – | – | 2.4 µg/mL | 2.7 | 6.5 µg/mL | 1.9 | 4.5 µg/mL | 2.08 | 5 µg/mL | 4.2 | >10 µg/mL | – | – | – |
| COC(=O)CCOC(=O)C12CCC(C(C)(Br)CBr)C1C1CCC3C4(C)CC(Br)C(=O)C(C)(C)C4CCC3(C)C1(C)CC2 (stereo not drawn) [MJ548-RS] | – | – | – | 2.5 µg/mL | >4 | >10 µg/mL | >4 | >10 µg/mL | 1.56 | 3.9 µg/mL | 4.0 | >10 µg/mL | – | – | – |
| CC(C)C1CCC2(C(=O)O)CCC3(C)C(CCC4C5(C)CCC(NNc6ccccc6)C(C)(C)C5CCC43C)C12 (stereo not drawn) [MJ878-RS] | – | – | – | 0.5 µg/mL | 19.8 | 9.9 µg/mL | 1.6 | 0.8 µg/mL | 7.0 | 3.5 µg/mL | 3.5 | 1.75 µg/mL | – | – | – |
| COc1ccc(NNC2CCC3(C)C(CCC4(C)C3CCC3C5C(C(C)C)CCC5(C(=O)O)CCC34C)C2(C)C)cc1 (stereo not drawn) [MJ912-RS] | – | – | – | 0.4 µg/mL | 21.1 | 8.5 µg/mL | >10 | >4 µg/mL | – | – | 0.87 | 0.35 µg/mL | – | – | – |
| CC(C)C1CCC2(C(=O)O)CCC3(C)C(CCC4C5(C)CCC(OC(=O)c6cc(F)cc(F)c6)C(C)(C)C5CCC43C)C12 (stereo not drawn) [MJ935-RS] | – | – | – | 0.7 µg/mL | 4.5 | 3.2 µg/mL | 1.7 | 1.2 µg/mL | – | – | >14.3 | >10 µg/mL | – | – | – |
| CC(C)C1CCC2(C(=O)O)CCC3(C)C(CCC4C5(C)CCC(OC(=O)c6ccc(F)cc6F)C(C)(C)C5CCC43C)C12 (stereo not drawn) [MJ937-RS] | – | – | – | 0.7 µg/mL | 3.5 | 2.5 µg/mL | 1.5 | 1.1 µg/mL | 2.3 | 1.6 µg/mL | 2.4 | 1.7 µg/mL | 16.7% | 21% | 21.7% |
| C=C(C)C1CCC2(C(=O)O)CCC3(C)C(CCC4C5(C)CCC(OC(=O)c6cccc(C(F)(F)F)c6)C(C)(C)C5CCC43C)C12 (stereo not drawn) [MJ939-RS] | – | – | – | 0.9 µg/mL | >11.1 | >10 µg/mL | 3.0 | 2.7 µg/mL | >4.4 | >4 µg/mL | >11.1 | >10 µg/mL | – | – | – |
| CC(C)C1CCC2(C(=O)O)CCC3(C)C(CCC4C5(C)CCC(OC(=O)c6ccccc6C(F)(F)F)C(C)(C)C5CCC43C)C12 (stereo not drawn) [MJ943-RS] | – | – | – | 2.6 µg/mL | >1.5 | >4 µg/mL | 1.5 | 4 µg/mL | >1.53 | >4 µg/mL | 3.84 | >10 µg/mL | – | – | – |
| CC(C)C1CCC2(C(=O)O)CCC3(C)C(CCC4C5(C)CCC(N=Cc6ccc(F)c(F)c6)C(C)(C)C5CCC43C)C12 (stereo not drawn) [MJ998-RS] | – | – | – | 0.35 µg/mL | 6.2 | 2.2 µg/mL | 7.1 | 2.5 µg/mL | 3.7 | 1.3 µg/mL | 11.4 | 4 µg/mL | 21.1% | 13.4% | 33.4% |
| CC(C)C1CCC2(C(=O)O)CCC3(C)C(CCC4C5(C)CCC(N=Cc6ccc(F)cc6F)C(C)(C)C5CCC43C)C12 (stereo not drawn) [MJ1065-RS] | – | – | – | 2.4 µg/mL | 1.04 | 2.5 µg/mL | 1.4 | 3.4 µg/mL | 0.54 | 1.3 µg/mL | 2.04 | 4.9 µg/mL | 23.4% | 16.7% | 46.7% |
| CC(C)C1CCC2(C(=O)O)CCC3(C)C(CCC4C5(C)CCC(=NOCc6ccc([N+](=O)[O-])cc6)C(C)(C)C5CCC43C)C12 (stereo not drawn) [MJ1098-RS] | – | – | – | 0.6 µg/mL | 2.5 | 1.5 µg/mL | 2.1 | 1.3 µg/mL | 2.7 | 1.6 µg/mL | 4.3 | 2.6 µg/mL | 15% | 7.5% | 10% |
| C=CC(=O)OC(=O)C12CCC(C(=C)C)C1C1CCC3C4(C)CCC(O)C(C)(C)C4CCC3(C)C1(C)CC2 (stereo not drawn) [MJ1101-RS] | – | – | – | 4.0 µg/mL | >2.5 | >10 µg/mL | 0.43 | 1.7 µg/mL | >1 | >4 µg/mL | 2.5 | >10 µg/mL | – | – | – |
| C=CC(=O)OC(=O)C12CCC(C(C)C)C1C1CCC3C4(C)CCC(O)C(C)(C)C4CCC3(C)C1(C)CC2 (stereo not drawn) [MJ1103-RS] | – | – | – | 2.0 µg/mL | >2.0 | >4 µg/mL | 2.0 | 4 µg/mL | 0.75 | 1.5 µg/mL | 5.0 | 10 µg/mL | – | – | – |
| C=C(C)C1CCC2(C(=O)O)CCC3(C)C(CCC4C5(C)CCC(OC(=O)c6ccc(CCCCC)cc6)C(C)(C)C5CCC43C)C12 (stereo not drawn) [MJ1104-RS] | – | – | – | 1.9 µg/mL | 1.05 | 2 µg/mL | 3.1 | 5.9 µg/mL | >2.1 | >4 µg/mL | 1.84 | 3.5 µg/mL | – | – | – |
| C=C(C)C1CCC2(C(=O)O)CCC3(C)C(CCC4C5(C)CCC(OC(=O)Cc6cc(OC)ccc6OC)C(C)(C)C5CCC43C)C12 (stereo not drawn) [MJ1108-RS] | – | – | – | 1.8 µg/mL | 0.55 | 1 µg/mL | 2.5 | 4.6 µg/mL | – | – | >5.6 | >10 µg/mL | – | – | – |
| C=C(C)C1CCC2(C(=O)O)CCC3(C)C(CCC4C5(C)CCC(OC(=O)c6ccc(CCCCCCC)cc6)C(C)(C)C5CCC43C)C12 (stereo not drawn) [MJ1138-RS] | – | – | – | 1.7 µg/mL | >5.8 | >10 µg/mL | 4.1 | 7 µg/mL | >2.3 | >4 µg/mL | >5.89 | >10 µg/mL | – | – | – |
